Data on 6 compounds can be found in ChEMBL document CHEMBL1909046, “DrugMatrix in vitro pharmacology data”.

The target in one data set is Cytochrome P450 2E1 (Homo sapiens, UniProt P05181). The note with it: bti-tn-5b1-4. Also: in other assays of this panel Not Active means under 50% inhibition at 10 µM.
The target of a further data set is D(1A) dopamine receptor (Homo sapiens, UniProt P21728). Nature of the data set: DRUGMATRIX: Dopamine D1 radioligand binding (ligand: [3H] SCH-23390). It is filed as cell membranes, CHO, Membrane. The note with it: cho; Not Active = under 50% inhibition at 10 µM.
Data set [1] in a line: DRUGMATRIX: Calcium Channel Type L, Benzothiazepine radioligand binding (ligand: [3H] Diltiazem). The format is cell membranes, Rattus norvegicus, Wistar, Brain, Membrane. The note with it: Not Active = under 50% inhibition at 10 µM.
The target of data set [2] is Matrix metalloproteinase-9 (Homo sapiens, UniProt P14780). The format is cell-based.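 Also: inhibition of isolated MMP-9 enzyme activity toward a synthetic peptide substrate, from the DrugMatrix protease screening panel; in other assays of this panel Not Active means under 50% inhibition at 10 µM.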
For data set [3], the target named is C-C chemokine receptor type 2 (Homo sapiens, UniProt P41597). The format is cell membranes, CHO-K1, Membrane. The note with it: cho-k1. Also: in other assays of this panel Not Active means under 50% inhibition at 10 µM.
The target of data set [4] is C-C chemokine receptor type 5 (Homo sapiens, UniProt P51681). It is filed as cell membranes, Membrane. The settings on record: hek293. Also: in other assays of this panel Not Active means under 50% inhibition at 10 µM.
Data set [5] concerns the target 5-hydroxytryptamine receptor 4 (Cavia porcellus, UniProt O70528). It is filed as cell membranes, Dunkin-Hartley, Striatum, Membrane. Also: in other assays of this panel Not Active means under 50% inhibition at 10 µM.
Data set [6] has as its target T1, Receptor-type tyrosine-protein phosphatase C (Homo sapiens, UniProt P08575).
T1 sequence (P08575 whole entry): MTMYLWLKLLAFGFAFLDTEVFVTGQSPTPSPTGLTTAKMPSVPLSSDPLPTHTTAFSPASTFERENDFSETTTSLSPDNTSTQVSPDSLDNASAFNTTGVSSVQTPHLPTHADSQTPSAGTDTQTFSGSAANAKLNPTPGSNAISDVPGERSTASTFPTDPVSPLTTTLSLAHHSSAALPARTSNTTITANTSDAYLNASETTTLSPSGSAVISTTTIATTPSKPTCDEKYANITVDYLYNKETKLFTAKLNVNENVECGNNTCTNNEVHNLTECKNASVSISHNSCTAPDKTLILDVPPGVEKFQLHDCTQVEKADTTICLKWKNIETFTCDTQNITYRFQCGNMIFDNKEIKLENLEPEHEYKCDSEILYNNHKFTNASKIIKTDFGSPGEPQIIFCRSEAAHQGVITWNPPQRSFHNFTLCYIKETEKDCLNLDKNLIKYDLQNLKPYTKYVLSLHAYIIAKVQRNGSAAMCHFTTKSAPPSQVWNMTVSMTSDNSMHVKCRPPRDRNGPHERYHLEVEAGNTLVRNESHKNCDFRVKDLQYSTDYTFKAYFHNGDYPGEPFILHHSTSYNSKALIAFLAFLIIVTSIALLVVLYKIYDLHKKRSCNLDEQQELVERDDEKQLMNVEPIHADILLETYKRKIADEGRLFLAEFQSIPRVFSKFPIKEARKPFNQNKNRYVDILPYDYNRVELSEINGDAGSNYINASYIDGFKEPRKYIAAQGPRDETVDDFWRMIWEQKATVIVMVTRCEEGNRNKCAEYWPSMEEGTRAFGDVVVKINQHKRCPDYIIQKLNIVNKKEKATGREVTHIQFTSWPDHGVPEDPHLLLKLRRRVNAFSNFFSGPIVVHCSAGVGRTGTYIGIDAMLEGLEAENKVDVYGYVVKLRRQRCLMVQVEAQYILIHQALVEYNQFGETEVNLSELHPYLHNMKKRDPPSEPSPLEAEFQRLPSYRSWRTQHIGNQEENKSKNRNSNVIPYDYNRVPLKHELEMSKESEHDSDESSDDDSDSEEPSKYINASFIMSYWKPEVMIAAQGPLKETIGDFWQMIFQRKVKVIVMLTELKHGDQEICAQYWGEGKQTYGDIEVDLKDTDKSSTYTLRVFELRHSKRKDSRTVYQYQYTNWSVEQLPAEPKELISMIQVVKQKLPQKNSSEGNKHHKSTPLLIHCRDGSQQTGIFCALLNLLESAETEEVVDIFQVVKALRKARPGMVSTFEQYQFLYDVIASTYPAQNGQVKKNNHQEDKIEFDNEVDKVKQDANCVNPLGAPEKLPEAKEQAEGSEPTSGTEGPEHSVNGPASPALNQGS
More on the design: species or system Escherichia coli.

The target in data set [7] is Sodium-dependent dopamine transporter (Homo sapiens, UniProt Q01959). Briefly: DRUGMATRIX: Dopamine Transporter radioligand binding (ligand: [125I] RTI-55). The note with it: Not Active = under 50% inhibition at 10 µM. The format is cell membranes, CHO-K1, Membrane.
A further data set has as its target Estrogen receptor beta (Homo sapiens, UniProt Q92731). The settings on record: sf9. Also: in other assays of this panel Not Active means under 50% inhibition at 10 µM.
Data set [8] deals with T2, Muscarinic acetylcholine receptor M4 (Homo sapiens, UniProt P08173).
T2 sequence (P08173 whole entry): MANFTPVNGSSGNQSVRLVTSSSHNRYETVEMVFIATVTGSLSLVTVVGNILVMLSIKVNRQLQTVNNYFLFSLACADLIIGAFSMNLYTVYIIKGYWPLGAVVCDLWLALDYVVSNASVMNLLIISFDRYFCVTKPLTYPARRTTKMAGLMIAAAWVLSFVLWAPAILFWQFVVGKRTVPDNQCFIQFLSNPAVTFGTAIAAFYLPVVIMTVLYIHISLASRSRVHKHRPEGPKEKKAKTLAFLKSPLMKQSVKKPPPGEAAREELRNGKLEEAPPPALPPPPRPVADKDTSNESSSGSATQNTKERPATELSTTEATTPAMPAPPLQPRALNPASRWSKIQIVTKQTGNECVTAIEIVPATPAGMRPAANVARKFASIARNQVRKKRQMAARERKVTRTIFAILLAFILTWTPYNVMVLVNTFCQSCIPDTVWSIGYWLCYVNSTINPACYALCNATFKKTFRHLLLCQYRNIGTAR
The format is cell membranes, CHO-K1, Membrane. The note with it: cho-k1.

In the next data set the target is T3, B2 bradykinin receptor (Homo sapiens, UniProt P30411). Also: in other assays of this panel Not Active means under 50% inhibition at 10 µM.
T3 sequence (P30411 whole entry): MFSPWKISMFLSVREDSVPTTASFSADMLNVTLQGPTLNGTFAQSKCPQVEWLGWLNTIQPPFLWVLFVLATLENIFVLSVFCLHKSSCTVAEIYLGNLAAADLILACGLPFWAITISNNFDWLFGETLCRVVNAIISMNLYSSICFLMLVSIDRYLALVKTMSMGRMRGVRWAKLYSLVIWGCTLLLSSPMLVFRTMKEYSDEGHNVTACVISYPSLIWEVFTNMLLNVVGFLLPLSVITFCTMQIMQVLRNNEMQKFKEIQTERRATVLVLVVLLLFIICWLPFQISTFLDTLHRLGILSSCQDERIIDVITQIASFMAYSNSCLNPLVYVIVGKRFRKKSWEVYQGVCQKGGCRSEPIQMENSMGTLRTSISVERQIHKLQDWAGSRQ
The format is cell membranes, Membrane. The note with it: chem-1.

Data set [9] can be described thus: DRUGMATRIX: Glutamate, NMDA, Phencyclidine radioligand binding (ligand: [3H] TCP). It is filed as cell membranes, Rattus norvegicus, Wistar, Cerebral cortex, Membrane. The settings on record: Not Active = under 50% inhibition at 10 µM.

Chain of D(1A) dopamine receptor (P21728 whole entry): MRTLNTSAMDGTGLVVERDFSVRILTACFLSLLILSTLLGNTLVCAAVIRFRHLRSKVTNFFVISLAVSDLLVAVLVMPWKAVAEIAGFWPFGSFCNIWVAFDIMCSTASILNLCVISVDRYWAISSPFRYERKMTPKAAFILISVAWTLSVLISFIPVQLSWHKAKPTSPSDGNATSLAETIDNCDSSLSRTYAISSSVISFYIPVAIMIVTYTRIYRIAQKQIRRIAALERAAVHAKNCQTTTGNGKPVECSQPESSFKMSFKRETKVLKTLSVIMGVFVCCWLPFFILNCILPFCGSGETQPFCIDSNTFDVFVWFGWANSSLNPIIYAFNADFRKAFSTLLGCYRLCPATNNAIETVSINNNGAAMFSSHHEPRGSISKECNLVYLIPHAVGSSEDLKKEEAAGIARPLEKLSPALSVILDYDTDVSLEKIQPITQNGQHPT
Chain of Matrix metalloproteinase-9 (P14780 whole entry): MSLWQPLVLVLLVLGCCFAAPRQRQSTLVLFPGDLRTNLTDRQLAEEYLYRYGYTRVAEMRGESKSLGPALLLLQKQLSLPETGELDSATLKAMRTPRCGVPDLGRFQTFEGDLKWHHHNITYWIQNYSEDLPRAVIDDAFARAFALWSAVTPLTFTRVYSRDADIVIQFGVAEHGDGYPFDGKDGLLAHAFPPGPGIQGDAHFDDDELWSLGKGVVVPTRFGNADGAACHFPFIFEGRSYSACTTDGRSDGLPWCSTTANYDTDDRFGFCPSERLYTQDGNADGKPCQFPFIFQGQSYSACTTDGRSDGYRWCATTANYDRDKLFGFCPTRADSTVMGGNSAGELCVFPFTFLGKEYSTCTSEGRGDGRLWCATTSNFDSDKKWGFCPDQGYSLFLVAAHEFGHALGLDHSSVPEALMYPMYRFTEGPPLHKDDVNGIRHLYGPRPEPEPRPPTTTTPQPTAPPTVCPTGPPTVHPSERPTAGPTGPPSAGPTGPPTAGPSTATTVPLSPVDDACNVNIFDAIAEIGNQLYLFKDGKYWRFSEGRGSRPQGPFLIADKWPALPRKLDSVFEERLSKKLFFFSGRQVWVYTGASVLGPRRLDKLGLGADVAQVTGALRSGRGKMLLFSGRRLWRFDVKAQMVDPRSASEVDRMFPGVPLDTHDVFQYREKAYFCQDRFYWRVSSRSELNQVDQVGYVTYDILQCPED
Chain of Estrogen receptor beta (Q92731 whole entry): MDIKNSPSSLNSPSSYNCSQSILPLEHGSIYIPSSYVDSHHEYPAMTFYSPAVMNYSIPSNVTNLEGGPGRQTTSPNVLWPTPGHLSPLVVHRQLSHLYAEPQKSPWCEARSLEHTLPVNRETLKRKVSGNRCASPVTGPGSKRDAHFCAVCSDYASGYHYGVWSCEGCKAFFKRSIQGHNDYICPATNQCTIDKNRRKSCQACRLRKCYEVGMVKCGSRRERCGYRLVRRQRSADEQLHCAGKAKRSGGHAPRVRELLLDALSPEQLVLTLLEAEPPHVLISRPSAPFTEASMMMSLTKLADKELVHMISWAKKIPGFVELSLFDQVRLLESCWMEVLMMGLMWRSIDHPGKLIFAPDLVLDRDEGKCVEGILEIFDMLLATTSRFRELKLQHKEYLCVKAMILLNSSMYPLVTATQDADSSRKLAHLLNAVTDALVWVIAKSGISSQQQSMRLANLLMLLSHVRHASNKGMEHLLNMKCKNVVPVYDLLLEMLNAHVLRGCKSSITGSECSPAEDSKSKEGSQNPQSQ
Chain of C-C chemokine receptor type 5 (P51681 whole entry): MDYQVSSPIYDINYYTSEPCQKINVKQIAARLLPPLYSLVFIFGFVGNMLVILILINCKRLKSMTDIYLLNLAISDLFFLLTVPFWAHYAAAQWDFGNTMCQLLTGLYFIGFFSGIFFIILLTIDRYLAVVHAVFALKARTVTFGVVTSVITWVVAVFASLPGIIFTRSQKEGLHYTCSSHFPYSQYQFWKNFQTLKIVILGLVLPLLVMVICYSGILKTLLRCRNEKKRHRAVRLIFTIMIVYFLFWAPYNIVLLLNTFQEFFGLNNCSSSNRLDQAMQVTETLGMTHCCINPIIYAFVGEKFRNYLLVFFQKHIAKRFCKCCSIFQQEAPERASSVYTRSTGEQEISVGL
Chain of Cytochrome P450 2E1 (P05181 whole entry): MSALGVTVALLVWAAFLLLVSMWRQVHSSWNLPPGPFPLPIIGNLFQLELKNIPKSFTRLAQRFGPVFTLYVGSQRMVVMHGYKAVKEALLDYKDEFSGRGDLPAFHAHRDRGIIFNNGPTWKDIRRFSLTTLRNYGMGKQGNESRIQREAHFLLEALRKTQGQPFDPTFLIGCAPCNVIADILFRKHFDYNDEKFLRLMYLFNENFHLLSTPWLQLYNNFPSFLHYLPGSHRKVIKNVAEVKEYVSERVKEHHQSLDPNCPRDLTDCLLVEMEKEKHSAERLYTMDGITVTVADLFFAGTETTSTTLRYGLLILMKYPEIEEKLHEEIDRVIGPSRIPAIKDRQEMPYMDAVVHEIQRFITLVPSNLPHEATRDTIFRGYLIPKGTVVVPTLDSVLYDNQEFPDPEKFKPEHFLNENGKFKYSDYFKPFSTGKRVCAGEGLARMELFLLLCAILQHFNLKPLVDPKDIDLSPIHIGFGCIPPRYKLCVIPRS
Chain of Sodium-dependent dopamine transporter (Q01959 whole entry): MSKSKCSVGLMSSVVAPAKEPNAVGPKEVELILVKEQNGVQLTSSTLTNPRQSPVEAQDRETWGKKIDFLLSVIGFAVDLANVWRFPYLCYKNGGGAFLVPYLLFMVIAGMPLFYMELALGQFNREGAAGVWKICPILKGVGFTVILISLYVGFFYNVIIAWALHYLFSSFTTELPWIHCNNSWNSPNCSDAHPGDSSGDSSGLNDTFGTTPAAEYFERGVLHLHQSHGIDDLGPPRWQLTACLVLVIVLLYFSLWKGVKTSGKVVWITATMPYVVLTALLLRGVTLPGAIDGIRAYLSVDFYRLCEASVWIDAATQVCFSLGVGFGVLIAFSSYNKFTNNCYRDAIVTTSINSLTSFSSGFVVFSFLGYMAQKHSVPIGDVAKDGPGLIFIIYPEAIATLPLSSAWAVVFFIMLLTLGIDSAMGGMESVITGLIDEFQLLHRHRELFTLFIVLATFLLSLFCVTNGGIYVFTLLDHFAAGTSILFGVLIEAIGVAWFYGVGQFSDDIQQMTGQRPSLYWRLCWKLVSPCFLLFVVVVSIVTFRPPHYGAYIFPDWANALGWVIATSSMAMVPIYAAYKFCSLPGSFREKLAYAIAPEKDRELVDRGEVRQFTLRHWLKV
Chain of 5-hydroxytryptamine receptor 4 (O70528 whole entry): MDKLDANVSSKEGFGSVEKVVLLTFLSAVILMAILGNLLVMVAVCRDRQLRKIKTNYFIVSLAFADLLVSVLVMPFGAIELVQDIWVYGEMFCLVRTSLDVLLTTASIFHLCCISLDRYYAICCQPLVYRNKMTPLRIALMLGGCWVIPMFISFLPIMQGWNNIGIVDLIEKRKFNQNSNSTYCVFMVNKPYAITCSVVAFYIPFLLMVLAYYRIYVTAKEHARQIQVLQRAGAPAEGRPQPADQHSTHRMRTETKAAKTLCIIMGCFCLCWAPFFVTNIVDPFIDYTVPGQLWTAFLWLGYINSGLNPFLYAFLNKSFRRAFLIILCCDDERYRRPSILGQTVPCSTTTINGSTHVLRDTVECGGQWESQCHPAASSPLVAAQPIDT
Chain of C-C chemokine receptor type 2 (P41597 whole entry): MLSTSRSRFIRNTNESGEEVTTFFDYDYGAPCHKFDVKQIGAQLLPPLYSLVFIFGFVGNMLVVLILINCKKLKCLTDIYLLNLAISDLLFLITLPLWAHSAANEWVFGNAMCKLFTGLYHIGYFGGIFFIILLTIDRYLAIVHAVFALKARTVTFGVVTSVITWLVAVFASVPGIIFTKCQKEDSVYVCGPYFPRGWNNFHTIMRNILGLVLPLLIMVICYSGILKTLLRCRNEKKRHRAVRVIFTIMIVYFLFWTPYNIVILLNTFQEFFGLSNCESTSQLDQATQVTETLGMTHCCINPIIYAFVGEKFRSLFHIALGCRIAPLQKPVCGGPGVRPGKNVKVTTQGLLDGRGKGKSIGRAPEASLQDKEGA

As to `CCCCCCCCCc1ccc(O)cc1` [4-NONYLPHENOL], the half-maximal inhibitory concentration (IC50) result (at Cytochrome P450 2E1; at D(1A) dopamine receptor; in [1]; in [2]; in data set [3]; in [4]) was “Not Active” throughout. In addition, the concentration for half-maximal inhibition (IC50) entry in data set [5] was “Not Active”; in [6], “Not Active”; in data set [7] (read-out: IC50) it was 1650 nM; against Estrogen receptor beta it was “Not Active”; in data set [8], “Not Active”; against B2 bradykinin receptor, “Not Active”. For the same compound, the IC50 result in data set [9] is on record as “Not Active”. Also, the inhibition constant Ki result at Cytochrome P450 2E1 was “Not Active”; in data set [1], “Not Active”; in data set [7] (read-out: Ki), 1310 nM; in data set [9], “Not Active”.
Take `Cc1[nH]cnc1CN1CCc2c(c3ccccc3n2C)C1=O` [ALOSETRON]: the IC50 result (on Cytochrome P450 2E1; on D(1A) dopamine receptor; in [1]; in [2]; in data set [3]; in data set [4]) was “Not Active” throughout. Also, the IC50 result (in data set [5]; in data set [6]; in data set [7] (cho-k1); against Estrogen receptor beta; in data set [8]; on B2 bradykinin receptor) was “Not Active” each time. For the same compound, the IC50 entry in data set [9] is given as “Not Active”. In addition, the inhibitory constant (Ki) result (on Cytochrome P450 2E1; in data set [1]; in data set [9]) was “Not Active” throughout.
As to `O=c1cc(-c2ccccc2)oc2c1ccc1ccccc12` [ALPHA-NAPHTHOFLAVONE], the IC50 result (against Cytochrome P450 2E1; on D(1A) dopamine receptor; in data set [1]; in data set [2]; in data set [3]; in data set [4]) was “Not Active” in each case. The IC50 entry (in data set [5]; in data set [6]; in [7] (cho-k1); against Estrogen receptor beta; in data set [8]; at B2 bradykinin receptor) was “Not Active” each time. In data set [9], the half-maximal inhibitory concentration (IC50) result was “Not Active”. For the same compound, the inhibitory constant (Ki) entry (on Cytochrome P450 2E1; in data set [1]; in [9]) was “Not Active” in each case.
For `NCC[C@H](O)C(=O)N[C@@H]1C[C@H](N)[C@@H](O[C@H]2O[C@H](CN)[C@@H](O)[C@H](O)[C@H]2O)[C@H](O)[C@H]1O[C@H]1O[C@H](CO)[C@@H](O)[C@H](N)[C@H]1O` [AMIKACIN], the IC50 result (against Cytochrome P450 2E1; on D(1A) dopamine receptor; in data set [1]; in data set [2]; in data set [3]; in data set [4]) was “Not Active” each time. Besides, the 50% inhibitory concentration (IC50) entry (in data set [5]; in data set [6]; in [7] (cho-k1); against Estrogen receptor beta; in [8]; at B2 bradykinin receptor) was “Not Active” throughout. Further, the IC50 entry in [9] is reported as “Not Active”. Further, the inhibition constant (Ki) entry (on Cytochrome P450 2E1; in data set [1]; in [9]) was “Not Active” in each case.
For `CC1(C)S[C@@H]2[C@H](NC(=O)[C@H](N)c3ccc(O)cc3)C(=O)N2[C@H]1C(=O)O` [AMOXICILLIN], the 50% inhibitory concentration (IC50) entry (on Cytochrome P450 2E1; on D(1A) dopamine receptor; in [1]; in data set [2]; in data set [3]; in data set [4]) was “Not Active” in each case. For the same compound, the IC50 entry (in data set [5]; in data set [6]; in data set [7] (cho-k1); against Estrogen receptor beta; in data set [8]; against B2 bradykinin receptor) was “Not Active” in each case. Further, in data set [9], the IC50 result is “Not Active”. Moreover, the inhibition constant (Ki) result (at Cytochrome P450 2E1; in data set [1]; in data set [9]) was “Not Active” each time.
As for `CCOC(=O)OC(C)OC1=C(C(=O)Nc2ccccn2)N(C)S(=O)(=O)c2ccccc21` (configuration not stated) [AMPIROXICAM], the IC50 result (on Cytochrome P450 2E1; on D(1A) dopamine receptor; in data set [1]; in data set [2]; in data set [3]; in [4]) was “Not Active” each time. In addition, the IC50 result (in data set [5]; in data set [6]; in data set [7] (cho-k1); at Estrogen receptor beta; in data set [8]; against B2 bradykinin receptor) was “Not Active” each time. The 50% inhibitory concentration (IC50) result in data set [9] is listed as “Not Active”. Moreover, the Ki result (at Cytochrome P450 2E1; in data set [1]; in data set [9]) was “Not Active” each time.

In general, IC50 refers to the concentration at which inhibition is half-maximal. The Ki is a dissociation constant, usually derived from enzyme kinetics or from competition with a known ligand.
